Data set [1] concerns BV-2. As to the kind of experiment: Cytotoxicity against mouse BV-2 cells assessed as reduction in cell viability at 120 uM after 24 hrs by MTT assay. It counts as cell-based. The note with it: bv-2, 24 h. In general terms: Tetrazolium assays rely on reduction of a dye to a coloured formazan, in cell work by metabolically active cells.
Data set [2] concerns BV-2. In words: Antiinflammatory activity in mouse BV-2 cells assessed as inhibition of LPS-induced NO production at 15 uM pretreated with compound for 1 hr followed by LPS stimulation for 24 hrs by Griess reagent based assay. It counts as functional, cell-based. The note with it: time 25.0 hrs.
For data set [3], the target named is T1, Inhibitor of nuclear factor kappa-B kinase subunit beta (Mus musculus) (UniProt O88351).
T1 sequence (whole entry): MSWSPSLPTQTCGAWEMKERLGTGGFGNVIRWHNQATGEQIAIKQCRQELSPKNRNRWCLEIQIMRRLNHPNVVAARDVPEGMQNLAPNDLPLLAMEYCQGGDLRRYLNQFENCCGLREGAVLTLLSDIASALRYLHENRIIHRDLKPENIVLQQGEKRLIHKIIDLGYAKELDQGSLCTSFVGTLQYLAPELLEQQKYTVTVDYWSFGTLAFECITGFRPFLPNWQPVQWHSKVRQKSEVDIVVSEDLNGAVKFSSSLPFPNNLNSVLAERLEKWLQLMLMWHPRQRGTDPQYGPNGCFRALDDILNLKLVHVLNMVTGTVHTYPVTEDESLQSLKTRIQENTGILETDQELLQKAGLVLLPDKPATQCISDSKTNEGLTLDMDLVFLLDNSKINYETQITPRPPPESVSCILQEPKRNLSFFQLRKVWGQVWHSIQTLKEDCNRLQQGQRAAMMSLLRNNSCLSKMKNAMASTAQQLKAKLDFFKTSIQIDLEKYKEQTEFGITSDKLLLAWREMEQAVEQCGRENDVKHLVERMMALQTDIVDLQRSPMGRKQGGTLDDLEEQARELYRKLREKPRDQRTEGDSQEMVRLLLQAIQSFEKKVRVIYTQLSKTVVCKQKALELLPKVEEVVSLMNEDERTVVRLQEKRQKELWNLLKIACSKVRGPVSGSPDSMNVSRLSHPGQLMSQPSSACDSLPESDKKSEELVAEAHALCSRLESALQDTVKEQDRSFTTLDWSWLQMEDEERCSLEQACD
As to the kind of experiment: Inhibition of IKappaB phosphorylation in LPS-stimulated mouse BV-2 cells at 15 to 60 uM pretreated with compound for 1 hr followed by LPS stimulation for 24 hrs by Western blot analysis. The following applies: dose 15-60 µM, time 25.0 hrs. The data set is classed as cell-based. Background: A western blot detects proteins with antibodies after separation by electrophoresis.

Data set [4] relates to BV-2. As to the kind of experiment: Antiinflammatory activity against mouse BV-2 cells assessed as inhibition of LPS-induced TNFalpha production at 15 to 60 uM pretreated with compound for 1 hr followed by LPS stimulation for 24 hrs by ELISA. The data set is classed as functional, cell-based. The note with it: dose 15-60 µM, time 25.0 hrs. (In general: ELISA stands for enzyme-linked immunosorbent assay.)

The target in data set [5] is MAP kinase p38 (Mus musculus) (UniProt P47811+O08911+Q9WUI1+Q9Z1B7). As to the kind of experiment: Inhibition of p38 phosphorylation in LPS-stimulated mouse BV-2 cells at 15 to 60 uM pretreated with compound for 1 hr followed by LPS stimulation for 24 hrs by Western blot analysis. It counts as cell-based. The note with it: dose 15-60 µM, time 25.0 hrs.
Data set [6] deals with BV-2. In words: Antiinflammatory activity against LPS-induced mouse BV-2 cells assessed as inhibition of NFkB protein expression at 15 to 60 uM pretreated with compound for 1 hr followed by LPS stimulation after 24 hrs by Western blot analysis. The data set is classed as functional, cell-based. The following applies: dose 15-60 µM, time 25.0 hrs.
The test system of data set [7] is BV-2. In words: Antiinflammatory activity against mouse BV-2 cells assessed as inhibition of LPS-induced IL-6 production at 15 to 60 uM pretreated with compound for 1 hr followed by LPS stimulation for 24 hrs by ELISA. The data set is classed as functional, cell-based. The following applies: dose 15-60 µM, time 25.0 hrs.
In data set [8] the test system is BV-2. In words: Antiinflammatory activity in mouse BV-2 cells assessed as inhibition of LPS-induced NO production pretreated with compound for 1 hr followed by LPS stimulation for 24 hrs by Griess reagent based assay. It counts as functional, cell-based.
In data set [9] the test system is BV-2. In words: Antiinflammatory activity against LPS-induced mouse BV-2 cells assessed as decrease in iNOS protein expression at 15 to 60 uM pretreated with compound for 1 hr followed by LPS stimulation after 24 hrs by Western blot analysis. It counts as functional, cell-based. The note with it: dose 15-60 µM, time 25.0 hrs.
In data set [10] the test system is BV-2. As to the kind of experiment: Antiinflammatory activity against mouse BV-2 cells assessed as inhibition of LPS-induced IL-1beta production at 15 to 60 uM pretreated with compound for 1 hr followed by LPS stimulation for 24 hrs by ELISA. The note with it: dose 15-60 µM, time 25.0 hrs. The data set is classed as functional, cell-based.
The subject of data set [11] is BV-2. As to the kind of experiment: Antiinflammatory activity against LPS-induced mouse BV-2 cells assessed as inhibition of TLR-4 protein expression at 15 to 60 uM pretreated with compound for 1 hr followed by LPS stimulation after 24 hrs by Western blot analysis. The data set is classed as functional, cell-based. The following applies: dose 15-60 µM, time 25.0 hrs.

Data set [12] relates to BV-2. In words: Antiinflammatory activity against LPS-induced mouse BV-2 cells assessed as decrease in COX2 protein expression at 15 to 60 uM pretreated with compound for 1 hr followed by LPS stimulation after 24 hrs by Western blot analysis. The following applies: dose 15-60 µM, time 25.0 hrs. The data set is classed as functional, cell-based.
Data set [13] has as its system BV-2. As to the kind of experiment: Antiinflammatory activity against mouse BV-2 cells assessed as inhibition of LPS-induced ROS production at 15 to 60 uM pretreated with compound for 1 hr followed by LPS stimulation for 24 hrs by DCFH-DA staining based fluorescence microscopy. It counts as functional, cell-based. The note with it: dose 15-60 µM, time 25.0 hrs.

This note sets out measurements from ChEMBL document CHEMBL4840373, “Aureonitol Analogues and Orsellinic Acid Esters Isolated from Chaetomium elatum and Their Antineuroinflammatory Activity” (J Nat Prod, 2021).

Activity calls are given as the source filed them. No cut-off for these calls is given here.

In the case of `Cc1cc(O)cc(O)c1C(=O)OCC(=O)[C@@H](O)[C@H](C)O` [GLOBOSUMONE C], in [1], the Activity entry is reported as “Non-Toxic”.
On to `C=C/C=C/[C@@H]1OC[C@H](/C=C/C=C/C)[C@H]1O`, for which the Activity result in data set [1] is “Non-Toxic”.
Regarding `C=C/C=C/[C@@H]1OC[C@H](/C=C/C[C@H](C)O)[C@H]1O`, the Activity result in [1] is “Non-Toxic”. Besides, in [2], the inhibition result is “Active”.
Consider `C=C/C=C/[C@@H]1OC[C@H](/C=C/[C@@H](O)[C@@H](C)O)[C@H]1O`, for which, in data set [1], the Activity entry is reported as “Non-Toxic”.
On to `C/C=C/C=C/[C@H]1CO[C@@H](/C=C/[C@H](O)CO)[C@@H]1O`, for which the inhibition result in data set [3], in data set [5], in data set [6] and in [11] was “Active” throughout. The result in data set [4], in data set [7], in data set [9], in data set [10], in [12] and in data set [13] was Active. Also, in data set [1], the Activity result is given as “Non-Toxic”. Also, in data set [8], the IC50 came out at 16.6 µM.
Turning to `C=C/C=C/[C@@H]1OC[C@H](/C=C/[C@@H](O)[C@H](C)O)[C@H]1O`, the Activity entry in [1] is recorded as “Non-Toxic”.
Consider `C/C=C/C=C/[C@H]1CO[C@@H](/C=C/[C@@H](O)CO)[C@@H]1O`, for which the Activity result in data set [1] is given as “Non-Toxic”. In addition, the inhibition entry in [2] is “Active”.
For the compound `C=C/C=C/[C@@H]1OC[C@@H](/C=C/C=C/C)[C@@H]1O`, the Activity result in data set [1] was “Non-Toxic”.
As for `C=C/C=C/[C@H]1OC[C@@H]([C@@H](O)/C=C/[C@@H](C)O)[C@@H]1O`, in data set [1], the Activity entry is recorded as “Non-Toxic”. For the same compound, the inhibition result in data set [2] is “Active”.
With `Cc1cc(O)cc(O)c1C(=O)OC[C@@]1(C[C@@H](C)O)C[C@@H](O)C(=O)O1`, the Activity result in [1] is listed as “Non-Toxic”.

In general, IC50 refers to the point on the concentration scale where inhibition reaches its midpoint.
